Reference: US7674789B2, “Compounds” (Glaxo Group Limited, priority 2005, dated 2010)
“Also recorded” adds a separate entry of the source.

What was measured:
[1] = system: IL-6, IL-8, GM-CSF, RANTES and COX-2; settings: a number of different cell types; cited from earlier work
[2] = system: TGF-β-induced fibronectin and thrombospondin; settings: Laping et al., 2002, Molec. Pharmacol. 62:58-64; cited from earlier work
[3] = system: influx of neutrophils to the lung in LPS-challenged rats; experiment: Rat LPS neutrophilia model; assay type: in vivo; settings: intratracheal compound 15 min-24 hours before LPS aerosol (100 ug/ml, 15 min), lavage 4 hours later, in at least one of the range of conditions tested
Experimental: Rat LPS Neutrophilia Model
The effect of compounds on the influx of neutrophils to the lung in LPS-challenged rats is evaluated as follows. The test compound is suspended in one of the following solutions: 0.5% tween 80/PBS, 0.5% tween 80/saline, 10% EtOH/saline (with pH adjusted to 2.0, or 8.0 with HCl, or unadjusted), Saline @ pH 2.0, 6.5 or 8.0, 0.5% Tragacanth, 1% DMSO/20% Encapsin/Saline, or acidified 5% Tragacanth. The suspension process may be aided by the use of a glass homogenizer. For intratracheal administration, the animals are anesthetized with inhaled isoflurane and placed in a supine position, the trachea is intubated with a steel gavage needle (1.5 inch, 22 gauge, small ball) or a Penn-Century Microsprayer Aerosolizer (model IA-1B) and 200 ul of dosing solution is delivered. The animals are visually monitored during the recovery process, which typically occurs within two minutes.
Rats treated with compound or vehicle (15 min-24 hours pretreatment) are exposed to an LPS aerosol (100 ug/ml) for 15 min. Four hours later the rats are euthanized with pentobarbital (100 mg/kg, i.p.) and the airways are lavaged with 5 washes of 5 ml of phosphate buffered saline. The harvested cells are stained (Diffquick) and counted to determine total and differential cell data. In a typical study, macrophages represent 40-70% of the total cells, and polymorphonuclear cells 30-60% of the total cells. Inhibition of neutrophil levels relative to no compound controls is calculated based on the differential counts.
The assay has varying conditions, such as concentration, pretreat time, form of the compound (crystalline, amorphous, salts, micronised), and a wet or dry application of the compound. The data is obtained as % inhibition using a particular concentration and pretreat time.

Fc1ccc(-c2nc3n(c2-c2ccncc2)CCS3)cc1 [SK&F 86002]
decreasing the synthesis of pro-inflammatory proteins including IL-6, IL-8, GM-CSF, RANTES and COX-2 [1]: effective

C[S+]([O-])c1ccc(-c2nc(-c3ccncc3)c(-c3ccc(F)cc3)[nH]2)cc1 (stereo not drawn) [SB-203580]
decreasing the synthesis of pro-inflammatory proteins including IL-6, IL-8, GM-CSF, RANTES and COX-2 [1]: effective

COc1nccc(-c2c(-c3ccc(F)cc3)ncn2C2CCNCC2)n1 [SB-242235]
effect on TGF-β-induced increases in fibronectin and thrombospondin [2]: inhibited

CCN(CC)CCCNc1nc(-c2cc(C(=O)Nc3ccc(F)cc3)ccc2C)c2c(n1)N(c1c(F)cccc1F)C(=O)NC2 [Example 43, 3-[2-{[3-(diethylamino)propyl]amino}-8-(2,6-difluorophenyl)-7-oxo-5,6,7,8-tetrahydropyrimido[4,5-d]pyrimidin-4-yl]-N-(4-fluorophenyl)-4-methylbenzamide]
inhibition of neutrophilia (neutrophil influx to the lung) [3]: inactive

Cc1ccc(C(=O)Nc2ccc(F)cc2)cc1-c1nc(N(C)CCCN(C)C)nc2c1CNC(=O)N2c1c(F)cccc1F [Example 9, 3-{8-(2,6-difluorophenyl)-2-[[3-(dimethylamino)-propyl](methyl)amino]-7-oxo-5,6,7,8-tetrahydropyrimido[4,5-d]pyrimidin-4-yl}-N-(4-fluorophenyl)-4-methylbenzamide]
inhibition of neutrophilia (neutrophil influx to the lung) [3]: statistically nonsignificant inhibition of neutrophilia

CSc1nc(-c2cc(NC(=O)c3ccsc3)ccc2C)c2c(n1)N(c1c(F)cccc1F)C(=O)NC2 [7(c), N-{3-[8-(2,6-Difluorophenyl)-2-(methylthio)-7-oxo-5,6,7,8-tetrahydropyrimido[4,5-d]pyrimidin-4-yl]-4-methylphenyl}-3-thiophenecarboxamide]
inhibition of neutrophilia (neutrophil influx to the lung) [3]: inactive

Cc1ccc(C(=O)NC(C)C)cc1-c1nc(N2CCC(N3CCCC3)CC2)nc2c1CNC(=O)N2c1c(F)cccc1F [Example 60, 3-{8-(2,6-difluorophenyl)-7-oxo-2-[4-(1-pyrrolidinyl)-1-piperidinyl]-5,6,7,8-tetrahydropyrimido[4,5-d]pyrimidin-4-yl}-4-methyl-N-(1-methylethyl)benzamide]
inhibition of neutrophilia (neutrophil influx to the lung) [3]: statistically nonsignificant inhibition of neutrophilia; also recorded: inactive

Cc1ccc(C(=O)Nc2ccc(F)c(F)c2)cc1-c1nc(NCCN(C)C)nc2c1CNC(=O)N2c1c(F)cccc1F [Example 138, N-(3,4-difluorophenyl)-3-(8-(2,6-difluorophenyl)-2-{[2-(dimethylamino)-ethyl]amino}-7-oxo-5,6,7,8-tetrahydropyrimido[4,5-d]pyrimidin-4-yl)-4-methylbenzamide]
inhibition of neutrophilia (neutrophil influx to the lung) [3]: statistically significant inhibition of neutrophilia

Cc1ccc(C(=O)Nc2nccs2)cc1-c1nc(NC[C@H](C)O)nc2c1CNC(=O)N2c1c(F)cccc1F [Example 134, 3-(8-(2,6-difluorophenyl)-2-{[(2S)-2-hydroxypropyl]amino}-7-oxo-5,6,7,8-tetrahydropyrimido[4,5-d]pyrimidin-4-yl)-4-methyl-N-1,3-thiazol-2-ylbenzamide]
inhibition of neutrophilia (neutrophil influx to the lung) [3]: statistically nonsignificant inhibition of neutrophilia

Cc1ccc(C(=O)NC(C)C)cc1-c1nc(N(C)CCN(C)C)nc2c1CNC(=O)N2c1c(F)cccc1F [Example 36, 3-{8-(2,6-difluorophenyl)-2-[[2-(dimethylamino)ethyl](methyl)amino]-7-oxo-5,6,7,8-tetrahydropyrimido[4,5-d]pyrimidin-4-yl}-4-methyl-N-(1-methylethyl)benzamide]
inhibition of neutrophilia (neutrophil influx to the lung) [3]: statistically significant inhibition of neutrophilia

Cc1ccc(C(=O)NC(C)C)cc1-c1nc(N2CCC(N3CCN(C)CC3)CC2)nc2c1CNC(=O)N2c1c(F)cccc1F [Example 72, 3-{8-(2,6-difluorophenyl)-2-[4-(4-methyl-1-piperazinyl)-1-piperidinyl]-7-oxo-5,6,7,8-tetrahydropyrimido[4,5-d]pyrimidin-4-yl}-4-methyl-N-(1-methylethyl)benzamide]
inhibition of neutrophilia (neutrophil influx to the lung) [3]: statistically significant inhibition of neutrophilia

Cc1ccc(C(=O)Nc2ccc(C)c(-c3nc(N(C)C)nc4c3CNC(=O)N4c3c(F)cccc3F)c2)cc1F [Example 28, N-{3-[8-(2,6-difluorophenyl)-2-(dimethylamino)-7-oxo-5,6,7,8-tetrahydropyrimido[4,5-d]pyrimidin-4-yl]-4-methylphenyl}-3-fluoro-4-methylbenzamide]
inhibition of neutrophilia (neutrophil influx to the lung) [3]: statistically nonsignificant inhibition of neutrophilia
